Laboratory results reported in patent US9579337B2, “Use of uridine and deoxyuridine to treat folate-responsive pathologies” (priority 2011, dated 2017).

Columns and labels:
[1] = tested on: female mice; experiment: Gross observations in female mice weaned on the diets; assay type: in vivo, mouse
[2] = tested on: intestinal tumors in Apc-min mice; experiment: Intestinal tumor number in Apc-min mice fed supplemented diets; assay type: in vivo, mouse; details: for intestinal tumors (number per mouse): AIN-93G diet lacking folic acid supplemented with 0.6% uridine or 0.1% deoxyuridine, FD alone 35+/-5
Description: SHMT1 null ([…]) mice were generated as previously described (MacFarlane et al., “Cytoplasmic Serine Hydroxymethyltransferase Regulates the Metabolic Partitioning of Methylenetetrahydrofolate but is Not Essential in Mice,” J. Biol. Chem. 283(38):25846-25853 (2008), which is hereby incorporated by reference in its entirety) and backcrossed a minimum of 10 generations onto the C57BL/6J strain. Mice were genotyped using the forward primer 5′-GACACTGTTCACATCCCTC-3′ (SEQ ID NO:1) and the reverse primer 5′-CAAAACATTCGGGAGCCTC-3′ (SEQ ID NO:2). The forward primer corresponds to an intron 6 sequence located 5′ to a loxP site and exon 7 and the reverse primer corresponds to an intron 7 sequence located downstream of a 3′ loxP site (MacFarlane et al., “Cytoplasmic Serine Hydroxymethyltransferase Regulates the Metabolic Partitioning of Methylenetetrahydrofolate but is Not Essential in Mice,” J. Biol. Chem. 283(38):25846-25853 (2008), which is hereby incorporated by reference in its entirety). C57BL/6J-Apc^Min/J (Apc^min/+) mice were obtained. Genotyping of Apc^min/+ mice was performed using the following primers recommended by The Jackson Laboratory protocol: wild-type forward primer 5′-GCCATCCCTTCACGTTAG-3′ (SEQ ID NO:3), Min forward primer 5′-[…]-3′ (SEQ ID NO:4), and a common reverse primer 5′-TTCCACTTTGGCATAAGGC-3′ (SEQ ID NO:5). […]
The small intestine and colon were removed, flushed with cold PBS, opened longitudinally, and laid flat lumen side up for examination using a dissecting microscope as previously described (Chiu et al., “Sulindac Causes Rapid Regression of Preexisting Tumors in Min/+Mice Independent of Prostaglandin Biosynthesis,” Cancer Res. 57:4267-73 (1997), which is hereby incorporated by reference in its entirety). Tumors were counted according to intestinal location (small intestine or colon) and their diameter measured by a pathologist-trained investigator who was blinded to the genotype of the intestinal specimen. Tumor load is a function of tumor number and area and was calculated as the total tumor area per mouse. […]

[3] = tested on: embryos and litters of Shmt1 dams; experiment: Implants, resorptions, dead embryos and crown-rump length in litters of Shmt1 dams; assay type: in vivo, mouse; details: for implantation, dead embryos occurrence, rates of resorption compared with C diet: litters from dams
Description: (§1) For all studies, mouse dams were maintained on diet from weaning throughout the breeding period and for the duration of gestation, until killed. Virgin female mice aged 70-120 days were housed overnight with males. The following morning, females were examined for the presence of a vaginal plug. Nine o'clock a.m. the day of the plug appearance was designated as gestational day 0.5 (E0.5). Pregnant females were sacrificed by cervical dislocation at E11.5 and blood was collected by cardiac puncture. Gravid uteri were removed and all implants and resorption sites were recorded. Embryos were examined for presence of NTDs and measured for crown-rump length. All yolk sacs were collected for subsequent genotyping. Embryos were extracted at E11.5 and rapidly frozen in liquid nitrogen followed by storage at −80° C. for biochemical analyses. Embryos examined for morphological abnormalities were derived at E11.5, and fixed in 10% neutral buffered formalin.
Analysis of embryonic CR length, total litter resorptions and implants was analyzed by 2-factor ANOVA with Tukey's honestly significant difference for post hoc analysis, in which litter was considered as a random effect. Independent variables included maternal genotype and diet. Resorption rate was calculated as the ratio of resorptions/total implants per litter and log-transformation was applied to normalize the data. Chi-squared analyses were used to assess any deviation from expected genotype ratios based on Mendelian inheritance. Analysis of uracil concentration, Thymidine, deoxyuridine, glucose and folate were conducted by 2-factor ANOVA with Tukey honestly significant differences for post hoc analysis. Independent variables included maternal genotype and diet. All test were performed in JMP version 8.02 (SAS institute). Western blots analyses were assessed using ANOVA and Dunnett's Multiple Comparison Test. […] All statistics were performed using GraphPad Prism version 4.00 for Windows, GraphPad Software, San Diego Calif. USA.

[4] = tested on: Shmt1-deficient embryos (NTDs, exencephaly); experiment: Neural tube defects (exencephaly) in embryos of Shmt1 dams fed nucleoside-supplemented diets; assay type: in vivo, mouse; details: for prevention of NTDs by supplementation of the folate-deficient (FD) diet: maternal folate deficiency, 0.2% thymidine or 0.1% 2'-deoxyuridine in diet; for Shmt1+/+ embryos with exencephaly: crosses involving Shmt1+/+ dams
Description: NTDs were examined in litters harvested from crosses of 129SvEv-Shmt1 (N=10 and more) mice. Shmt1^+/−, Shm1^+/+, and Shmt1^−/− mice were generated from Shmt1^+/− breeding pairs maintained as a heterozygote breeding colonies. Shmt1^+/+ and Shmt1^−/− female mice were then crossed to Shmt1^+/− male mice for timed mating experiments, as described below.
Mice were maintained on a 12-hour light/dark cycle in a temperature-controlled room. For studies investigating Shmt1 disruption and NTDs, female mice were randomly assigned at weaning to experimental AIN93G diets containing folic acid (C) or AIN93G lacking folic acid (FD) (FIG. 2) and including 0.6% uridine (Rudolph F B & Van Buren C T (1993), which is hereby incorporated by reference in its entirety), 0.2% thymidine (Iwasa et al., “The Well-Balanced Nucleoside-Nucleotide Mixture ‘0G-VI’ for Special Medical Purposes,” Nutrition 13(4):361-364 (1997), which is hereby incorporated by reference in its entirety), or 0.1% 2′-Deoxyuridine supplementation (Dyets, Bethlehem, Pa.). Diets were assigned with these abbreviations: AIN-93G as control (“C”); Folate Deficient (“FD”), C+ supplemented with 0.6% uridine (“C+U”), C+ supplemented with 0.2% thymidine (“C+T”), C+ supplemented with 0.1% 2′-Deoxyuridine (“C+dU”), FD+ supplemented with 0.6% uridine (“FD+U”), FD+ supplemented with 0.2% thymidine (“FD+T”), FD+ supplemented with 0.1% 2′-Deoxyuridine (“FD+dU”).
as §1
Analysis of NTD incidence, including differences between Genotypes, Diets, and interactions of Diet×genotype were analyzed by 2-factor ANOVA by using Tukey's honestly significant difference for post hoc analysis.

[5] = tested on: splotch mutant (Pax3^Sp); details: splotch mutant / splotch homozygotes; literature (Wlodarczyk 2005; Fleming 1998; others); cited from earlier work
[6] = Shmt1-/- dams fed FD+T diet (0.2% thymidine), out of 32
[7] = Shmt1+/+ dams, C+U diet (inferred), out of 69
[8] = Shmt1+/+ female mice fed FD+U diet (0.6% uridine), out of 56

With `O=c1ccn([C@H]2C[C@H](O)[C@@H](CO)O2)c(=O)[nH]1` [deoxyuridine, 2′-Deoxyuridine] as the compound, how does the other gross findings ([1]; dU and dUFD groups) read?
The other gross findings was “Edematous of internal organs (up to 4 mice from dU and dUFD groups together), blood in GI track and uterus, and discoloration of pancreas”.

What about the “lymphoid aggregates on colons compared to other groups” value ([1]; female mice weaned on C+dU and FD+dU) of the same compound?
Its value is “High frequency of numerous lymphoid aggregates”.

And the “intestinal tumors (number per mouse)” value [2]?
Its value is 29+/−2.0.

And the “effect on tumor number” value ([2]; FD diet + 0.1% deoxyuridine)?
The value was “no effect on tumor number”.

And the “number of dead embryos” value ([3]; dams fed FD+dU and C+dU diets (0.1% 2'-deoxyuridine))?
The value was “higher number of dead embryos, but the differences did not reach significance”.

And the “implantation, dead embryos occurrence, rates of resorption compared with C diet” value [3]?
Its value is “Neither implantation, dead embryos occurrence, or rates of resorption were significantly different”.

And the NTD occurrence ([4]; Shmt1+/+ and Shmt1-/- dams fed FD+dU diet (folic acid deficient + 0.1% 2'-deoxyuridine))?
Its NTD occurrence is “did not exhibit NTDs”.

What about the “prevention of NTDs by supplementation of the folate-deficient (FD) diet” value [4] of the same compound?
Its value is “prevented NTDs”.

With `Nc1nc2ncc(CNc3ccc(C(=O)N[C@@H](CCC(=O)O)C(=O)O)cc3)nc2c(=O)[nH]1` [folic acid] as the compound, how does the “rescue / prevention of NTDs by dietary supplementation” value [5] read?
The value was “can be rescued”.

Which “number of embryos with NTDs” value ([4]; Shmt1+/+ dams fed FD+T diet (0.2% thymidine), out of 49) does the source give for `Cc1cn([C@H]2C[C@H](O)[C@@H](CO)O2)c(=O)[nH]c1=O` [thymidine, reference compound] here?
Its value is 2 NTDs.

What about the “frequency of NTDs (exencephaly) in embryos” value ([4]; Shmt1+/+ dams fed FD+T diet (AIN93G lacking folic acid + 0.2% thymidine), out of 49) of the same compound?
Its value is 4.1%.

And the “frequency of NTDs (exencephaly) in embryos” value [4, 6]?
The value was 9.4%.

And the “number of embryos with NTDs” value [4, 6]?
Its value is 3 NTDs.

What about the “Shmt1+/+ embryos with exencephaly” value [4] of the same compound?
Its value is “one”.

What about the NTD occurrence ([4]; dams fed C+T diet (AIN-93G + 0.2% thymidine)) of the same compound?
The NTD occurrence was “No NTDs were uncovered”.

And the “prevention of NTDs by supplementation of the folate-deficient (FD) diet” value [4]?
Its value is “did not prevent NTD occurrence and not”.

What does the source list for `O=c1ccn([C@@H]2O[C@H](CO)[C@@H](O)[C@H]2O)c(=O)[nH]1` [uridine]?
intestinal tumors (number per mouse) [2]: 18+/−2; implantation, dead embryos occurrence, rates of resorption compared with C diet [3]: Neither implantation, dead embryos occurrence, or rates of resorption were significantly different; frequency of exencephaly in embryos [4, 7]: 5.8%; number of embryos with NTDs [4, 7]: 4 NTDs; frequency of exencephaly in embryos [4, 8]: 5.4%; number of embryos with exencephaly [4, 8]: 3; number of embryos with exencephaly ([4]; Shmt1-/- dams fed FD+U diet (0.6% uridine), of 44 viable embryos): 7; frequency of exencephaly in embryos ([4]; Shmt1-/- dams fed FD+U diet (folate deficient + 0.6% uridine), of 44 viable embryos): 15.9%; frequency of exencephaly in embryos ([4]; Shmt1-/- dams, C+U diet (AIN-93G + 0.6% uridine; diet inferred from next sentence), out of 50 viable embryos): 6%; number of embryos with NTDs ([4]; Shmt1-/- dams, C+U diet (inferred), out of 50 viable embryos): 3 NTDs; Shmt1+/+ embryos with exencephaly [4]: One; effect on NTD frequency ([4]; uridine supplementation, independent of dietary folic acid): exacerbated NTD frequency
